Test results: ChEMBL document CHEMBL1153424, “Discovery of 4-(benzylaminomethylene)isoquinoline-1,3-(2H,4H)-diones and 4-[(pyridylmethyl)aminomethylene]isoquinoline-1,3-(2H,4H)-diones as potent and selective inhibitors of the cyclin-dependent kinase 4” (J Med Chem, 2009)

Legend:
[1] = molecular target: Cyclin-dependent kinase 2 (Homo sapiens, UniProt P24941); assay: Inhibition of CDK2/Cyclin E assessed as inhibition of retinoblastoma susceptibility gene product phosphorylation
[2] = molecular target: Cyclin-dependent kinase 1/cyclin B1 (Homo sapiens, UniProt P06493+P14635); assay: (§1) Inhibition of CDK1/Cyclin B1 assessed as inhibition of retinoblastoma susceptibility gene product phosphorylation
Sequence of Cyclin-dependent kinase 1/cyclin B1 (Homo sapiens, UniProt P06493+P14635) (P06493 whole entry): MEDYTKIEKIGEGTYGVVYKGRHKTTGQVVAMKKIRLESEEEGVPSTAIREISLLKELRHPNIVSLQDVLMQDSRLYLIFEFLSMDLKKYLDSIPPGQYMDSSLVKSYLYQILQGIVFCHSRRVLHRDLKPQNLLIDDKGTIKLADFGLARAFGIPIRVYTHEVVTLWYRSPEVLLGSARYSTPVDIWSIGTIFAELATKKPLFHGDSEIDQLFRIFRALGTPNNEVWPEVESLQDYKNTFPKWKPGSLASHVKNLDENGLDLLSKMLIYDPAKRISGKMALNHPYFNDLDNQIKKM
Sequence of Cyclin-dependent kinase 1/cyclin B1 (Homo sapiens, UniProt P06493+P14635) (P14635 whole entry): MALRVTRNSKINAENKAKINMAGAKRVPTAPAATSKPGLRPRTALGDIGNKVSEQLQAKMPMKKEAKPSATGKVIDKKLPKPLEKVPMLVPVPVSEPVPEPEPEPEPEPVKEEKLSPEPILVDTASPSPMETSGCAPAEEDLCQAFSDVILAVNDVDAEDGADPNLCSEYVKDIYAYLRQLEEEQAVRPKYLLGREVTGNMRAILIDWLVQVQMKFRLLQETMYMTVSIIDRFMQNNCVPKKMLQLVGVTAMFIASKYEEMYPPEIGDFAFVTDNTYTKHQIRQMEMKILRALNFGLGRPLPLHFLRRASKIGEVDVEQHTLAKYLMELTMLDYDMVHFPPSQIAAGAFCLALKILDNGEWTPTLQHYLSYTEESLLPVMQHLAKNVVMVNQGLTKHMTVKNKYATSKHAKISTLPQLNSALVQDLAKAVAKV

[3] = molecular target: Cyclin-dependent kinase 4/cyclin D1 (Homo sapiens, UniProt P11802); assay: (§2) Inhibition of CDK4/Cyclin D1 assessed as inhibition of retinoblastoma susceptibility gene product phosphorylation; format: protein-complex assay
Sequence of Cyclin-dependent kinase 4/cyclin D1 (Homo sapiens, UniProt P11802) (P11802 whole entry): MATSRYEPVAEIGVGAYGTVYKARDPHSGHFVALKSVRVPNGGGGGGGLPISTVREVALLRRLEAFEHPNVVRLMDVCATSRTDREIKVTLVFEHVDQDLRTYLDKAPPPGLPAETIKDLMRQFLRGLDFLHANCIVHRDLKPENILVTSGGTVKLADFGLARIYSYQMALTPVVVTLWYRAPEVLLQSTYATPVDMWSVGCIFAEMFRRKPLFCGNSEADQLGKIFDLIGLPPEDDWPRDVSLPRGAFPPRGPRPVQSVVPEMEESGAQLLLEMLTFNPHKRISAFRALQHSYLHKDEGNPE
Sequence of Cyclin-dependent kinase 4/cyclin D1 (Homo sapiens, UniProt P11802) (P24385 whole entry, further chain): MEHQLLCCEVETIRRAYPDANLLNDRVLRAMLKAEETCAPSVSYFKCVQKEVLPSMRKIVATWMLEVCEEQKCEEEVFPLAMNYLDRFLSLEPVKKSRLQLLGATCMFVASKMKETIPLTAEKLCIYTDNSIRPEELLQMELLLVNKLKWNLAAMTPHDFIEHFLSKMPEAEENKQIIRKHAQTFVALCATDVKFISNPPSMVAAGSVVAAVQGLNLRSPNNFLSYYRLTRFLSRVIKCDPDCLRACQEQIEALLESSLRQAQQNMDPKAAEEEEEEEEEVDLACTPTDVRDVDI

MCF7 = assay: cells; details: Homo sapiens, MCF7, 72 h
Description: Cytotoxicity against human MCF7 cells after 3 days by SRB assay

HCT-116 = assay: cells; details: Homo sapiens, HCT-116, 72 h
Description: Cytotoxicity against human HCT116 cells after 3 days by SRB assay

[4] = molecular target: Cyclin-dependent kinase 1/cyclin B1 (Homo sapiens, UniProt P06493); assay: as §1
Sequence of Cyclin-dependent kinase 1/cyclin B1 (Homo sapiens, UniProt P06493) (P06493 whole entry): as the sequence (P06493 whole entry) above
Sequence of Cyclin-dependent kinase 1/cyclin B1 (Homo sapiens, UniProt P06493) (P14635 whole entry, further chain): as the sequence (P14635 whole entry) above

[5] = Metabolic stability in Sprague-Dawley rat liver microsome assessed as half life after 15 mins using NADPH/UDPGA cofactor; format: ADME; details: liver microsomes
[6] = Metabolic stability in Sprague-Dawley rat liver microsome assessed as half life after 15 mins using NADPH cofactor; format: ADME; details: liver microsomes
[7] = Selectivity for CDK4/Cyclin D1 over CDK2/Cyclin E
[8] = Selectivity for CDK4/Cyclin D1 over […]
[9] = molecular target: Tyrosine-protein kinase Lck (Homo sapiens, UniProt P06239); assay: Inhibition of LCK
Sequence of Tyrosine-protein kinase Lck (P06239 whole entry): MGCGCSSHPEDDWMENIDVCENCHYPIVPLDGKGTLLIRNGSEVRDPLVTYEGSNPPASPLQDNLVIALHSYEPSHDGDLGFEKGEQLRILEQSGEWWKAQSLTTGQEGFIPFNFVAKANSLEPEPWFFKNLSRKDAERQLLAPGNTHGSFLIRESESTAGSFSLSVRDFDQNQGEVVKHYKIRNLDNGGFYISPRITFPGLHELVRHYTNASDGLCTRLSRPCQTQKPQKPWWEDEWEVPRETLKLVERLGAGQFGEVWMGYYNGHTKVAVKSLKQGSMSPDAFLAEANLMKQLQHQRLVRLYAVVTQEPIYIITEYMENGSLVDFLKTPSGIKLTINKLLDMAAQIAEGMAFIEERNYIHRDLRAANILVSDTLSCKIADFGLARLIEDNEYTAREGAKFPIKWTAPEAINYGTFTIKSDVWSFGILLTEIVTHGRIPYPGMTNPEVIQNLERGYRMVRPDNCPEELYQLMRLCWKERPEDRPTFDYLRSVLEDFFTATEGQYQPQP

[10] = Inhibition of p70S6
[11] = molecular target: Proto-oncogene tyrosine-protein kinase Src (Homo sapiens, UniProt P12931); assay: Inhibition of Src
Sequence of Proto-oncogene tyrosine-protein kinase Src (P12931 2-536 limits assumed): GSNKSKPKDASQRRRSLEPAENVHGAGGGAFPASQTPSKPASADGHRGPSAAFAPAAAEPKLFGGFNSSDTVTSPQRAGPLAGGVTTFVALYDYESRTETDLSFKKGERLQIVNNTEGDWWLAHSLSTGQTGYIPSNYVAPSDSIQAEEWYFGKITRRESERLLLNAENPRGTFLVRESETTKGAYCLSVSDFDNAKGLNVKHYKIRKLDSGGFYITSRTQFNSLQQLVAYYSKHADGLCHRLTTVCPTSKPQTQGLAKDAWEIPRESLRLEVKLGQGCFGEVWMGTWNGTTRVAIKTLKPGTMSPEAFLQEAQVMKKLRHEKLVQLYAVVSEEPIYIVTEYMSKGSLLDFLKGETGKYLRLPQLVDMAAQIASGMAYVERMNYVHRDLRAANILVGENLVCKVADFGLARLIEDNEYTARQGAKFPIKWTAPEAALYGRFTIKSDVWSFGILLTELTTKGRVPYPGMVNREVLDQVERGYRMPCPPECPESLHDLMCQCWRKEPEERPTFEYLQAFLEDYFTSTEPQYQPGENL

[12] = molecular target: Mitogen-activated protein kinase kinase kinase 8 (Homo sapiens, UniProt P41279); assay: Inhibition of Tpl2
Sequence of Mitogen-activated protein kinase kinase kinase 8 (P41279 whole entry): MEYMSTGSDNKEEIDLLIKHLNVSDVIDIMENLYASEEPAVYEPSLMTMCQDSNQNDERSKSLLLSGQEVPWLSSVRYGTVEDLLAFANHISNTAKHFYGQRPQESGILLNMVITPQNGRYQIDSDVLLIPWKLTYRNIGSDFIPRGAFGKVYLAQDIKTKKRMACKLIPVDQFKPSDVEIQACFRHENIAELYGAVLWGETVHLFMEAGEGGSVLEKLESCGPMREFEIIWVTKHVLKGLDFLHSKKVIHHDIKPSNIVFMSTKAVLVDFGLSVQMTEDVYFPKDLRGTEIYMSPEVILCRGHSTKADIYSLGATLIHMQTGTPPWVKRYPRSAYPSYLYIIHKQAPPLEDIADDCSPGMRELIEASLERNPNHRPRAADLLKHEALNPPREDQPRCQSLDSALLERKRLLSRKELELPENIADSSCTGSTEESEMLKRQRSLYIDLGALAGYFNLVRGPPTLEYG

[13] = molecular target: Protein kinase C theta type (Homo sapiens, UniProt Q04759); assay: Inhibition of PKCtheta
[14] = molecular target: RAC-alpha serine/threonine-protein kinase (Homo sapiens, UniProt P31749); assay: Inhibition of AKT
Sequence of RAC-alpha serine/threonine-protein kinase (P31749 whole entry): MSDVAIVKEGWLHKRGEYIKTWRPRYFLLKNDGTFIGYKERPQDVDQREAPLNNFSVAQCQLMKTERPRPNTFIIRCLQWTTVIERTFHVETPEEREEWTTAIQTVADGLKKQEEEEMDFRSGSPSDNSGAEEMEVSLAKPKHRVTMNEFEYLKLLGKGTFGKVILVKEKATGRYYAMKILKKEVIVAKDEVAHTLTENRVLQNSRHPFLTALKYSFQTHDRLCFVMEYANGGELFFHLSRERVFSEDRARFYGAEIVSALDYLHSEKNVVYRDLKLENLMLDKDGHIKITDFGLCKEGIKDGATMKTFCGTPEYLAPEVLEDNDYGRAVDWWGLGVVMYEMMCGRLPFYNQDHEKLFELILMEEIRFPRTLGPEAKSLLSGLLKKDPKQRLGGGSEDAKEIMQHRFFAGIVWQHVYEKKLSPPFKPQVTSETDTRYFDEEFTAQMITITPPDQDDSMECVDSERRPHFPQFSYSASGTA

[15] = molecular target: Serine/threonine-protein kinase mTOR (Homo sapiens, UniProt P42345); assay: Inhibition of mTOR
[16] = molecular target: Signal transducer and activator of transcription 3 (Homo sapiens, UniProt P40763); assay: Inhibition of STAT3
[17] = molecular target: Tyrosine-protein kinase Lyn (Homo sapiens, UniProt P07948); assay: Inhibition of LYN
Sequence of Tyrosine-protein kinase Lyn (P07948 whole entry): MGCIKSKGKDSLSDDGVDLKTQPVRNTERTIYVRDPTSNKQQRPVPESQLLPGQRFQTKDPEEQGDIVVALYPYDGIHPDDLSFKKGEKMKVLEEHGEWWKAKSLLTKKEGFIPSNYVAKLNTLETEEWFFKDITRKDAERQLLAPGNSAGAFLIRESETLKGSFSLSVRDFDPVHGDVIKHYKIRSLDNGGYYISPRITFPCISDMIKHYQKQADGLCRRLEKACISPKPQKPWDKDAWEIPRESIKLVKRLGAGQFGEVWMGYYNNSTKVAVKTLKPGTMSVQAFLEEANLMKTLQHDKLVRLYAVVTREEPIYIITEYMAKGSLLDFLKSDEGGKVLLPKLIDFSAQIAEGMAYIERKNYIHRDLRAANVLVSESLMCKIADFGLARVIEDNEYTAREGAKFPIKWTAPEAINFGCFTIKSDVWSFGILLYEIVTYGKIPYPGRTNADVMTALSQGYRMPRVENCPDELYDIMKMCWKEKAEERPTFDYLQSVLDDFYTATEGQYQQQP

[18] = molecular target: MAP kinase-activated protein kinase 2 (Homo sapiens, UniProt P49137); assay: Inhibition of MK2
Sequence of MAP kinase-activated protein kinase 2 (P49137 whole entry): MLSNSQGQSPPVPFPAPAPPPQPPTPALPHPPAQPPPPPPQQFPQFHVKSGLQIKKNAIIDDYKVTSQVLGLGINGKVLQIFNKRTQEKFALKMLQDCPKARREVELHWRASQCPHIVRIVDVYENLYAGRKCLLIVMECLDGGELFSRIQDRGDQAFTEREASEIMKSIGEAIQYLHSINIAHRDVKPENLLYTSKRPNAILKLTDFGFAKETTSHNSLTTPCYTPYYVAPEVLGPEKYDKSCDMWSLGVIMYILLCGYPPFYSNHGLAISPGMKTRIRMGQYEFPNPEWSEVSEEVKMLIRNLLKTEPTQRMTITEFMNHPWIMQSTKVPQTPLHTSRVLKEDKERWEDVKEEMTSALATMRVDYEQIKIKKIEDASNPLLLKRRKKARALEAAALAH

[19] = molecular target: Cyclin-dependent kinase 4/cyclin D1 (Homo sapiens, UniProt P11802+P24385); assay: as §2; format: protein-complex assay
Sequence of Cyclin-dependent kinase 4/cyclin D1 (Homo sapiens, UniProt P11802+P24385) (P11802 whole entry): as the sequence (P11802 whole entry) above
Sequence of Cyclin-dependent kinase 4/cyclin D1 (Homo sapiens, UniProt P11802+P24385) (P24385 whole entry): as the sequence (P24385 whole entry, further chain) above

SMILES	IC50 [1] [nM]	IC50 [3] [nM]	IC50 (MCF7) [nM]	IC50 (HCT-116) [nM]	IC50 [4] [nM]	also measured
CCCOc1ccc(CN/C=C2\C(=O)NC(=O)c3ccc(Br)cc32)cc1O	34500					
O=C1NC(=O)c2ccccc2/C1=C/NCc1cccc(O)c1	16900					IC50 [2]: < 50000 nM
O=C1NC(=O)c2ccc(I)cc2/C1=C/NCc1ccc(-c2ccncc2)c(O)c1	> 50000	8	1500	2300	> 50000	
CCCOc1ccc(CN/C=C2\C(=O)NC(=O)c3ccc(I)cc32)cc1O	2600	20	1800	650	> 50000	half-life [5]: 15 min; half-life [6]: > 30 min
O=C1NC(=O)c2ccc(C3CCCC3)cc2/C1=C/NCc1cc(O)c(-c2ccoc2)cn1		< 5	830	810	3100	
CC(C)(C)c1ccc2c(c1)/C(=C/NCc1cc(O)c(-c3ccccc3)cn1)C(=O)NC2=O		30	700	150		
CCCOc1ccc(CN/C=C2\C(=O)NC(=O)c3ccc(I)cc32)nc1O	700	20	1400	670	10100	half-life [5]: > 30 min; half-life [6]: > 30 min
COc1ccc(CN/C=C2\C(=O)NC(=O)c3ccc(-c4ccsc4)cc32)cc1O						Ratio IC50 [7]: 9000; Ratio IC50 [8]: 11000
O=C1NC(=O)c2ccc(I)cc2/C1=C/NCc1ccc(-c2ccoc2)c(O)c1		60			24400	IC50 [9]: > 30000 nM; IC50 [10]: > 30000 nM; IC50 [11]: > 30000 nM; IC50 [12]: > 4000 nM; IC50 [13]: 25900 nM; half-life [5]: 18 min; IC50 [14]: 10200 nM; IC50 [15]: 18000 nM; half-life [6]: > 30 min; IC50 [16]: 1700 nM; IC50 [17]: 8500 nM; IC50 [18]: 19000 nM
Cc1ccc(CN/C=C2\C(=O)NC(=O)c3ccc(I)cc32)cc1O	13600	30	8200	6700		
COc1cnc(CN/C=C2\C(=O)NC(=O)c3ccc(I)cc32)cc1O		10	1000	1300	14700	half-life [5]: > 30 min; half-life [6]: > 30 min
O=C1NC(=O)c2ccc(I)cc2/C1=C/NCc1cc(O)c(-c2ccoc2)cn1			2700	550		half-life [5]: 22 min; half-life [6]: > 30 min
COc1ccc(CN/C=C2\C(=O)NC(=O)c3ccc(Cl)cc32)cc1O	< 50000					IC50 [2]: < 50000 nM
COc1ccc(CN/C=C2\C(=O)NC(=O)c3ccc(-c4ccoc4)cc32)cc1O	1100	2				
CCCOc1cnc(CN/C=C2\C(=O)NC(=O)c3ccc(C(C)(C)C)cc32)cc1O		20	700	430	6200	
O=C1NC(=O)c2ccc(I)cc2/C1=C/NCc1ccc(-c2ccco2)c(O)c1		100	700	380	> 50000	
COc1cnc(CN/C=C2\C(=O)NC(=O)c3ccc(I)cc32)nc1O	> 50000	440	> 50000	> 50000	> 50000	
O=C1NC(=O)c2ccc(I)cc2/C1=C/NCc1ccc(-c2ccccn2)c(O)c1	> 50000	19300	540	250	> 50000	
O=C1NC(=O)c2ccccc2/C1=C/NCc1ccc(O)cc1	17300					IC50 [19]: < 50000 nM
Nc1ccc(CN/C=C2\C(=O)NC(=O)c3ccc(Br)cc32)cc1O						IC50 [2]: < 50000 nM
COc1ccc(CN/C=C2\C(=O)NC(=O)c3ccc(F)cc32)cc1O	6600					IC50 [2]: < 50000 nM

SMILES	IC50 [1] [nM]	IC50 [3] [nM]	IC50 (MCF7) [nM]	IC50 (HCT-116) [nM]	IC50 [4] [nM]	also measured
COc1cc(CN/C=C2\C(=O)NC(=O)c3ccc(Br)cc32)cc(O)c1OC	< 50000	7				IC50 [2]: < 50000 nM
O=C1NC(=O)c2ccccc2/C1=C/NCCc1ccc(O)c(O)c1		16200				
COc1ccc(CN(C)/C=C2\C(=O)NC(=O)c3ccc(Br)cc32)cc1O						IC50 [2]: < 50000 nM
COc1ccc(C(C)N/C=C2\C(=O)NC(=O)c3ccc(Br)cc32)cc1O (centres undefined)	< 50000	370				IC50 [2]: < 50000 nM
O=C1NC(=O)c2ccc(Br)cc2/C1=C/NCc1ccc(O)c(O)c1	< 50000	40				IC50 [2]: < 50000 nM
CCCOc1cnc(CN/C=C2\C(=O)NC(=O)c3ccc(I)cc32)cc1O		30	880	730	25300	half-life [5]: > 30 min; half-life [6]: > 30 min
O=C1NC(=O)c2ccccc2/C1=C/Nc1ccc(O)c(O)c1		7800				
O=C1NC(=O)c2ccc(Br)cc2/C1=C/NCc1cc[nH]c(=O)c1					> 50000	
CCOc1ccc(CN/C=C2\C(=O)NC(=O)c3ccc(Br)cc32)cc1O						IC50 [2]: < 50000 nM
COCCOc1ccc(CN/C=C2\C(=O)NC(=O)c3ccc(Br)cc32)cc1O	< 50000	40				IC50 [2]: < 50000 nM
COc1ccc(CN/C=C2\C(=O)NC(=O)c3ccccc32)cc1O	6900	190			48700	
COc1ccc(CN/C=C2\C(=O)NC(=O)c3ccc(Br)cc32)cc1O	< 50000	30				Ratio IC50 [7]: 1600; IC50 [2]: < 50000 nM; Ratio IC50 [8]: 1600
O=C1NC(=O)c2ccc(I)cc2/C1=C/NCc1ccc(-c2ccccc2)c(O)c1			880	420		
COc1ccc(CN/C=C2\C(=O)NC(=O)c3ccc(-n4cccc4)cc32)cc1O	3100					
CC(C)(C)c1ccc2c(c1)/C(=C/NCc1cc(O)c(-c3ccoc3)cn1)C(=O)NC2=O		20	1400	480	9500	
O=C1NC(=O)c2ccccc2/C1=C/NCc1ccc(O)c(O)c1		1200			36600	
CCCOc1cnc(CN/C=C2\C(=O)NC(=O)c3ccc(C4CCCC4)cc32)cc1O		< 5	300	150	3100	
COc1ccc(CN/C=C2\C(=O)NC(=O)c3ccc(I)cc32)cc1O			3700	2000		half-life [5]: 6 min; half-life [6]: 18 min
COc1coc(CN/C=C2\C(=O)NC(=O)c3ccc(Br)cc32)cc1=O	16900	1300			> 50000	
O=C1NC(=O)c2ccc(I)cc2/C1=C/NCc1ccc(-c2cccnc2)c(O)c1		10	1100	440	> 50000	
COc1ccc(CN/C=C2\C(=O)NC(=O)c3ccc(-c4ccccc4)cc32)cc1O	25900	10			34700	
